Data published in PubChem BioAssay AID849 (SRMLSC, 2007).
The source made the active and inactive calls. The rule behind the calls is not given here.

What follows are compounds tested on Saccharomyces cerevisiae lifespan shortening, growth inhibition (assay: Saccharomyces cerevisiae growth inhibition potency – dose response (AID 849);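 note: yeast growth read as optical density after two days at 30 degrees C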).
`COc1cc(Br)cc(/C=N/c2ncn[nH]2)c1O` showed an IC50 of 28.8 µM.
In the case of `Nc1c(C(=O)NCCc2ccccc2)c2nc3ccccc3nc2n1CCN1CCOCC1`, the IC50 is reported as 22.3 µM.
`CCN(CC)c1ccc(S(=O)(=O)N2CCOCC2)cc1NC(=O)CSc1cccc[n+]1[O-]` was tested, and the IC50 was 16.7 µM.
For `CC(C)(C)N/N=C/c1cc(Cl)cc([N+](=O)[O-])c1O`, the IC50 was 12.9 µM.
`Cc1ccc(C(C[N+](=O)[O-])n2nc(C)cc2C)cc1` (stereo not drawn) showed an IC50 of 19.1 µM.
Compound `CCCCc1oc2ccccc2c1C(=O)c1cc(I)c(OCCN(CC)CC)c(I)c1` has an IC50 of 7.79 µM.
In the case of `CCCCCC/C(C)=C1/SC(=S)NC1=O`, the IC50 is reported as > 100 µM (inactive).
`Cc1nn(-c2ccccc2)c2sc(C(=O)O)cc12` gave an IC50 of 47.2 µM.
In the case of `Cc1ccc(N=Nc2ccc(O)c3ncccc23)cc1`, the IC50 is reported as 34.3 µM.
With `Cn1cccc1C(=O)NC(=O)CSc1cccc[n+]1[O-]` the IC50 was 21.8 µM.
For `c1cnc2c(c1)ccc1cccnc12`, the IC50 was 13.3 µM.
In the case of `O=c1c2ccccc2nc2c3ccccc3c3nncn3n12`, the IC50 is reported as 49.9 µM.
`Cn1c(-c2ccco2)nc2cc3ccccc3cc21` was tested, and the IC50 was 39.7 µM.
Work on `Cc1ccc(O)c(-c2cc(-c3cccc(F)c3)n[nH]2)c1` yielded an IC50 of 19.3 µM.
`CCN(CC)S(=O)(=O)c1ccc(NC(=O)CSc2cccc[n+]2[O-])cc1` was tested, and the IC50 was 24.2 µM.
In the case of `Cc1noc2ncnc(Sc3ccccc3Cl)c12`, the IC50 is reported as 26.6 µM.
Work on `Cc1cccnc1Nc1nc(-c2ccccn2)cs1` yielded an IC50 of 45.7 µM.
Work on `OC(COc1ccc2ccccc2c1Br)Cn1cnc(-c2ccccc2)c1` (stereo not drawn) yielded an IC50 of 49.3 µM.
For `Clc1cc2nc3ccccn3c2cc1Cl`, the IC50 was 51.5 µM.
With `CCOC(=O)c1c(N)sc(C(O)(C(F)(F)F)C(F)(F)F)c1-c1ccc(F)cc1` the IC50 was > 100 µM (inactive).
With `Clc1ccc(N/N=C/c2ccncc2)cc1Cl` the IC50 was > 100 µM (inactive).
`COc1ccc(S(=O)(=O)n2oc(=O)cc2-c2ccccc2)cc1OC` was tested, and the IC50 was > 100 µM (inactive).
`Cc1ccnn2cc3c(=O)n(C)c(=O)n(C)c3c12` gave an IC50 of 23.2 µM.
`Cc1cccc(OCCCCc2c(C)n[nH]c2C)c1C` showed an IC50 of 38.1 µM.
For `Cc1cc(/C=N/n2cnnc2)c(C)n1-c1ccc(OCc2ccc(Cl)cc2Cl)cc1`, the IC50 was > 100 µM (inactive).
With `Cc1ccc(-c2nc(N)sc2-c2ccccc2)cc1C` the IC50 was > 100 µM (inactive).
`O=C(O)c1ccc(SCc2cnc(Cl)s2)cc1` showed an IC50 of 7.4 µM.
`CCOc1ccc(N/N=C(/C#N)C(N)=O)cc1` was tested, and the IC50 was 7.82 µM.
In the case of `O=C(O)c1ccccc1C(=O)NNc1ccc(Cl)cc1`, the IC50 is reported as 4.61 µM.
`CCCCCCCCC/C(=N\O)c1ccccn1` gave an IC50 of 4.51 µM.
With `CC(=O)n1cc(C(C[N+](=O)[O-])SCCN)c2ccccc21` (stereo not drawn) the IC50 was 8.5 µM.
For `O=C(CSC1=NS(=O)(=O)c2ccccc21)Nc1ccccc1`, the IC50 was > 100 µM (inactive).
For `O=C1c2cccc3c(Cl)ccc(c23)C(=O)N1O`, the IC50 was 21.7 µM.
`CCC1C(=O)N=C(SCC(=O)Nc2ccccc2)NC1=O` (stereo not drawn) was tested, and the IC50 was > 100 µM (inactive).
With `C=C(C)COc1ccc(-c2[nH]ncc2Oc2ccccc2OC)c(O)c1` the IC50 was > 100 µM (inactive).
`Cc1ccc2nc3c(nc2c1)-c1ccccc1C3=O` gave an IC50 of 30.3 µM.
Compound `CCOC(=O)c1ccc(-n2[nH]c(-c3ccccc3)cc2=O)cc1` has an IC50 of 17.1 µM.
In the case of `COCC(C)OC(=O)/C(C#N)=C\c1coc2ccc(C)cc2c1=O` (stereo not drawn), the IC50 is reported as > 100 µM (inactive).
`COc1ccc(NC(=O)CC2SC(=Nc3ccccc3)NC2=O)c(OC)c1` (stereo not drawn) was tested, and the IC50 was > 100 µM (inactive).
With `CCN1/C(=C/c2ccc3cccc(C)c3[n+]2CC)Sc2ccccc21` the IC50 was 9.8 µM.
`Clc1ccc(COC(Cn2ccnc2)c2ccc(Cl)cc2Cl)cc1` (stereo not drawn) was tested, and the IC50 was 0.809 µM.
With `S=C(NCC1CCCCC1)Nc1ccc(Oc2ccccc2)cc1` the IC50 was > 100 µM (inactive).
`Cc1ccc(CNC(=O)c2ccc(Cn3nc(C)c(Cl)c3C)o2)cc1` showed an IC50 of 12.4 µM.
In the case of `CC1CCCCN1S(=O)(=O)c1coc(C(N)=O)c1` (stereo not drawn), the IC50 is reported as > 100 µM (inactive).
Work on `Cc1ccc(-c2nn(C(C)(C)C)c3ncnc(N)c23)cc1` yielded an IC50 of 1.72 µM.
`O=C(Nc1ccc(Cl)cc1)ON=C1CCCC1` was tested, and the IC50 was 3.69 µM.
With `CCCCn1c(/N=C/c2c[nH]c3ccccc23)nc2ccccc21` the IC50 was > 100 µM (inactive).
`O=C(Oc1c(Cl)cc(Cl)c2cccnc12)c1cccc([N+](=O)[O-])c1` gave an IC50 of 2.95 µM.
In the case of `O=C(O)Cc1ccc2sc(-c3ccccc3)nc2c1`, the IC50 is reported as > 100 µM (inactive).
`CCCCCC/C(=N/O)c1ccccn1` showed an IC50 of 10.3 µM.
For `Cc1ccc(N=Cc2cccc(O)c2O)c(C)c1`, the IC50 was 13.1 µM.
Work on `Cc1ccc(-c2cc(-c3ccccc3Cl)[nH]n2)c(O)c1` yielded an IC50 of 51.1 µM.
Work on `CNC(=O)c1cc2c(ccc3ccccc32)oc1=N` yielded an IC50 of 12.4 µM.
For `Cc1cc(C)c2c(N=NN3CCCCC3)[nH]nc2n1`, the IC50 was 5.02 µM.
In the case of `C=CCSC(=C(C#N)C#N)c1cc2c([nH]1)CCCC2`, the IC50 is reported as > 100 µM (inactive).
Compound `O=C1OCC(CO)(CO)N=C1NNc1ccc(Cl)c(Cl)c1` has an IC50 of 2.89 µM.
In the case of `CCOC(=O)C1CCCCN1C(=O)CCc1c(C)nc2cc(-c3ccccc3)nn2c1C` (stereo not drawn), the IC50 is reported as > 100 µM (inactive).
`O=[N+]([O-])c1ccc(O)c(/C=N/Nc2ccccn2)c1` showed an IC50 of 31 µM.
`O=c1c2cccc3c2c(nn1CN1CCOCC1)-c1ccccc1-3` was tested, and the IC50 was 23.5 µM.
With `Oc1c(Br)cc(Br)cc1Oc1ccc(Br)cc1Br` the IC50 was > 100 µM (inactive).
Compound `Nc1ccc(O)c2c1C(=O)c1ccccc1C2=O` has an IC50 of 28.1 µM.
`COc1cc(/C=C2/C(=O)ON=C2c2ccccc2)ccc1O` was tested, and the IC50 was 8.49 µM.
With `CCC(C)N1CC23C=CC(O2)C(C(=O)OC)C3C1=O` (stereo not drawn) the IC50 was > 100 µM (inactive).
Compound `NNC(=O)c1cccc(COc2ccc3c(c2)CCC3)c1` has an IC50 of 17.3 µM.
With `O=C(/C=C/c1ccccc1Cl)c1ccccc(=O)c1O` the IC50 was 9.76 µM.
With `CCc1ccc(/C=C/C(=O)c2cc(Br)ccc(=O)c2O)cc1` the IC50 was 9.89 µM.
In the case of `Cc1ccc(-c2cc(C(=O)N3N=C(C(F)F)CC3(O)C(F)F)c3ccccc3n2)cc1C` (stereo not drawn), the IC50 is reported as > 100 µM (inactive).
Compound `Cc1nn2c(-c3ccco3)nnc2c2ccccc12` has an IC50 of 26.5 µM.
In the case of `c1ccc(Cc2nnc3sc(-c4ccc5c(c4)OCCO5)nn23)cc1`, the IC50 is reported as > 100 µM (inactive).
Work on `O=C(CCCSc1ccccc1)Nc1nc(-c2ccccn2)cs1` yielded an IC50 of 50.5 µM.
`CCOc1cccc(-c2nnc3n2N=C(c2cc(OC)ccc2OC)CS3)c1` was tested, and the IC50 was > 100 µM (inactive).
With `CCCCOc1ccc(C(=O)NNC(=S)NC(=O)CC)cc1` the IC50 was 41.5 µM.
`Oc1cccc2ccc(/C=C/c3cccs3)nc12` was tested, and the IC50 was 37.5 µM.
With `O=C(OCn1ncc(Br)c(Br)c1=O)c1ccccc1Cl` the IC50 was > 100 µM (inactive).
With `Cc1ccc(COc2ccc(Br)cc2/C=N/O)cc1` the IC50 was > 100 µM (inactive).
With `Cc1cccc(N=Nc2ccc(O)c3ncccc23)c1` the IC50 was 34.8 µM.
`CC(=O)NC1C(=O)N=C(SCC(=O)NC2CCCCC2)NC1=O` (stereo not drawn) was tested, and the IC50 was > 100 µM (inactive).
`COc1ccc(-c2nncnn2)cc1` was tested, and the IC50 was 10 µM.
With `O=C(O)C1C2C=CC(O2)C1C(=O)NC1CCCc2ccccc21` (stereo not drawn) the IC50 was > 100 µM (inactive).
`CC(C)(CNC(=S)NCCc1ccccc1)CNC(=S)NCCc1ccccc1` was tested, and the IC50 was > 100 µM (inactive).
`CCN1CCN(C(=O)C(NS(=O)(=O)c2ccc3nc(C)sc3c2)C(C)C)CC1` (stereo not drawn) was tested, and the IC50 was > 100 µM (inactive).
`Oc1c(Br)cc(Cl)cc1C=Nc1ccccc1Br` gave an IC50 of 27.1 µM.
For `O=C(CSc1cccc[n+]1[O-])c1cc2ccccc2o1`, the IC50 was 2.97 µM.
`O=c1c(-c2ccc(Cl)cc2)[n+]([O-])c2ccccc2n1O` gave an IC50 of 7.87 µM.
For `COc1ccc(/C(C)=N/NC(=O)c2ccc(CSc3cccc4cccnc34)cc2)cc1OC`, the IC50 was > 100 µM (inactive).
For `CCCCCCCCCCCCCCCC[n+]1cccc2ccccc21`, the IC50 was 0.783 µM.
In the case of `COC(=O)c1ccc(C(=O)OC)c(NC(=O)CSc2cccc[n+]2[O-])c1`, the IC50 is reported as 0.822 µM.
For `CC(=O)/C(=N\Nc1ccc(C)cc1)N1CCOCC1`, the IC50 was 11.1 µM.
Compound `COC(=O)Cc1cc(=O)n(-c2nc3ccccc3[nH]2)[nH]1` has an IC50 of 21.7 µM.
`O=c1cnn([C@@H]2O[C@H](CO)[C@@H](O)[C@H]2O)c(=O)[nH]1` gave an IC50 of 13.7 µM.
For `O=S(=O)(Nc1ccc(-c2csc(-c3ccccc3)n2)cc1)c1ccc(F)cc1`, the IC50 was > 100 µM (inactive).
`CC(=O)NC(c1cccs1)c1cc([N+](=O)[O-])c2cccnc2c1O` (stereo not drawn) was tested, and the IC50 was > 100 µM (inactive).
With `Cc1ccc(NN2C(=O)C=C(c3ccc(Cl)cc3)C2=O)cc1` the IC50 was 18.4 µM.
Work on `O=c1[nH]c2ccccc2c2nc3ccccn3c12` yielded an IC50 of 40 µM.
With `O=C1CC(N2CCN(c3nc4ccccc4s3)CC2)C(=O)N1Cc1cccs1` (stereo not drawn) the IC50 was > 100 µM (inactive).
With `Cc1ccc(/C=C2\C(=O)Nc3ccccc32)o1` the IC50 was > 100 µM (inactive).
`C(=N\c1ncnc2sccc12)/NOCc1ccccc1` was tested, and the IC50 was 23.2 µM.
Work on `Cc1ccc2nc(/C(C#N)=C\c3ccc([N+](=O)[O-])o3)[nH]c2c1` yielded an IC50 of 18.9 µM.
For `CCn1c2ccccc2c2cc(Nc3cc(C)nc4ncnn34)ccc21`, the IC50 was > 100 µM (inactive).
In the case of `Cc1ccccc1C(=O)O/N=C/c1c(N2CCOCC2)n(C)c2ccccc12`, the IC50 is reported as 49.9 µM.
`CCc1cccc(C)c1NC(=S)NCc1ccc2[nH]c(C)cc2c1` showed an IC50 of 37.5 µM.
`CCCCc1ccc(NC(=S)Nc2ccc(Nc3ccc(OC)cc3)cc2)cc1` gave an IC50 of 33.1 µM.
Work on `c1ccc2c(c1)oc1c(N3CCOCC3)ncnc12` yielded an IC50 of 32.1 µM.
With `CC1=C(C)/C(=N\OS(=O)(=O)c2ccc(C)cc2)C=CC1=O` the IC50 was 12.5 µM.
With `CCCCN(CCCC)C(=S)N/N=C/c1c(C)[nH]n(-c2ccccc2)c1=O` the IC50 was 38.9 µM.
With `CN1C(=O)/C(=N/OC(=O)c2ccccc2)c2ccccc21` the IC50 was > 100 µM (inactive).
In the case of `Cc1nn(-c2ccc(F)cc2)c2sc(C(=O)O)cc12`, the IC50 is reported as 30.9 µM.
In the case of `CCS(=O)(=O)n1nc(-c2ccc(Cl)cc2)nc1SCc1ccccc1`, the IC50 is reported as > 100 µM (inactive).
With `Cc1nnc(NC(=O)CSc2nnc(Cc3cccn3C)n2-c2ccccc2)s1` the IC50 was > 100 µM (inactive).
`CN1CCN(Cc2cc(COCc3ccccc3)c3cccnc3c2O)CC1` gave an IC50 of 26 µM.
With `O=C(NC1CCCCC1)Sc1ccc(Cl)cc1` the IC50 was > 100 µM (inactive).
`CCCC(=O)NC(c1cccs1)c1cc([N+](=O)[O-])c2cccnc2c1O` (stereo not drawn) gave an IC50 of 16.6 µM.
For `Cc1cccc(C(=O)Oc2csc(=S)n2C(=O)c2cccc(C)c2)c1`, the IC50 was > 100 µM (inactive).
In the case of `O=C(c1ccccc1)c1ccc2nc(N3CCCCC3)c3nncn3c2c1`, the IC50 is reported as > 100 µM (inactive).
`CCOC(=O)CSc1nnc(CSc2nc(N)c3c(C)c(C)sc3n2)n1-c1ccccc1` was tested, and the IC50 was > 100 µM (inactive).
In the case of `CCCCOC(=O)Sc1nc2ccccc2o1`, the IC50 is reported as 16 µM.
`O=C(/C(=C/O)N=Nc1ccccc1)c1ccncc1` gave an IC50 of 14.5 µM.
In the case of `C=CCn1c(C)cc(C(=O)CSc2nnc(NCc3ccccc3)s2)c1C`, the IC50 is reported as > 100 µM (inactive).
